The results in this text go back to PubChem BioAssay (NCI).

Molecules are shown by their SMILES.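 Cultured in 96-well plates, cells were exposed to test compound for 48 hours across five concentrations. TGI denotes the concentration required for complete inhibition of growth.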 Where a SMILES comes first, the peptide text is derived from it. The star is where a group is joined. Cbz = O=C(OCc1ccccc1)*

Test systems include 786-0 renal; A549 NSCLC; MDA-MB-231 breast; MOLT-4 leukemia; SF-268 CNS; SR leukemia; SW-620 colon; UO-31 renal; LOX IMVI melanoma; HOP-92 NSCLC.
Holding throughout (assay): growth of human tumour cells (NCI), 48 h

On to `CC(=O)Oc1ccc2c(c1)O/C(=C\c1ccc(N(C)C)cc1)C2=O`, for which the TGI in the test with 786-0 renal, with A549 NSCLC, with MDA-MB-231 breast, with MOLT-4 leukemia, in the test with SF-268 CNS and in the test on SR leukemia was more than 100 µM throughout. Moreover, the TGI in the test with SW-620 colon and in the test with UO-31 renal was more than 100 µM throughout.

In the case of `OC1C2CN3CCN(C2)CC1(c1ccccc1)C3` (stereo unspecified), the TGI in the test on 786-0 renal, with LOX IMVI melanoma, in the test on MDA-MB-231 breast, in the test on MOLT-4 leukemia, with SF-268 CNS and with SR leukemia was more than 100 µM in each case. The TGI in the test on SW-620 colon and with UO-31 renal was more than 100 µM in each case.

On to `CN1CCN(c2n[nH]c(=O)c3c2nnn3Cc2ccccc2)CC1`, for which the TGI in the test with 786-0 renal, in the test on A549 NSCLC, in the test on HOP-92 NSCLC, in the test with LOX IMVI melanoma, with MDA-MB-231 breast and in the test with MOLT-4 leukemia was more than 100 µM throughout. Also, the TGI in the test on SF-268 CNS, with SR leukemia and in the test on UO-31 renal was more than 100 µM in each case.

As for `CCO/C(O)=c1/s/c(=C2/SC(=S)N(c3ccc(C)cc3)C2=O)n(-c2ccccc2)c1=N`, the TGI in the test on 786-0 renal was 77.4 µM; with A549 NSCLC, more than 100 µM; with HOP-92 NSCLC, more than 100 µM; in the test on MDA-MB-231 breast, 59 µM; with MOLT-4 leukemia, more than 100 µM; with SF-268 CNS, more than 95.8 µM. The TGI with SR leukemia, in the test with SW-620 colon and in the test with UO-31 renal was more than 100 µM in each case.

Consider `CN(C(=O)Cc1cc(Cl)c(Cl)cc1NC(=O)CCCN)[C@H]1CCCC[C@@H]1N1CCCC1`, for which the TGI was 36.2 µM in the test with 786-0 renal; 83.1 µM in the test with A549 NSCLC; 39.3 µM in the test with LOX IMVI melanoma; 77.4 µM in the test on MDA-MB-231 breast; more than 100 µM in the test with MOLT-4 leukemia; 30.6 µM in the test on SF-268 CNS. Further, the TGI with SR leukemia is more than 100 µM; with SW-620 colon, 91.2 µM; in the test on UO-31 renal it was more than 100 µM.

Take `CC1=C[C@H](C[C@]2(C)c3c(c4c(C)cccc4oc3=O)O[C@@H]2C)OC1=O`: the TGI in the test with 786-0 renal is 50 µM; in the test with A549 NSCLC, more than 100 µM; in the test with LOX IMVI melanoma, more than 100 µM; with MDA-MB-231 breast, more than 100 µM; in the test with MOLT-4 leukemia, 72.3 µM; with SF-268 CNS, 63.4 µM. For the same compound, the figures for the TGI in the test on SR leukemia, in the test on SW-620 colon and in the test on UO-31 renal were 61.3 µM, 75 µM and more than 100 µM, respectively.

For `Cc1ccc(N=NC(=Nc2ccc(F)cc2)c2ccc(N(CCC#N)CCC#N)cc2)cc1`, the TGI in the test on 786-0 renal, with A549 NSCLC, in the test on HOP-92 NSCLC, in the test with MDA-MB-231 breast, with MOLT-4 leukemia and in the test with SF-268 CNS was more than 100 µM each time. Further, the TGI in the test with SR leukemia, in the test with SW-620 colon and in the test with UO-31 renal was more than 100 µM each time.

As to `COC(=O)/C(=C(/C)c1ccco1)P(=O)(OC)OC`, the TGI in the test on 786-0 renal, in the test on A549 NSCLC, with HOP-92 NSCLC, with LOX IMVI melanoma, in the test on MDA-MB-231 breast and in the test with MOLT-4 leukemia was more than 100 µM throughout. In addition, the TGI in the test with SF-268 CNS, in the test on SR leukemia and in the test with SW-620 colon was more than 100 µM in each case.

As for `OC1CCN2Cc3ccccc3N=C12` (stereo unspecified), the TGI in the test with 786-0 renal, in the test with A549 NSCLC, in the test with HOP-92 NSCLC, in the test on LOX IMVI melanoma, with MDA-MB-231 breast and in the test with MOLT-4 leukemia was more than 100 µM each time. The TGI with SF-268 CNS, with SW-620 colon and in the test with UO-31 renal was more than 100 µM throughout.

As to `CC1(N2CCOCC2)CC2C(=[N+]1[O-])CCC/C2=N/O` (stereo unspecified), the TGI with 786-0 renal, in the test on A549 NSCLC, in the test on LOX IMVI melanoma, with MDA-MB-231 breast, in the test with MOLT-4 leukemia and in the test with SF-268 CNS was more than 100 µM in each case. Besides, the TGI in the test with SR leukemia, in the test on SW-620 colon and in the test with UO-31 renal was more than 100 µM each time.

Turning to `c1ccc(C/C(=N\Nc2nc3ccccc3[nH]2)c2ccccn2)cc1`, the TGI in the test on 786-0 renal was determined as 5.7 µM; in the test with A549 NSCLC it was 11.9 µM; with HOP-92 NSCLC, 0.653 µM; with LOX IMVI melanoma, 8.1 µM; with MDA-MB-231 breast, 13.4 µM; in the test on MOLT-4 leukemia, 6.85 µM. Moreover, the values for the TGI in the test with SF-268 CNS, in the test on SW-620 colon and with UO-31 renal were 12 µM, 15.1 µM and 1.88 µM, respectively.

As to `CCOC(=O)c1nc2ccccc2nc1Nc1cc(OC)c(OC)c(OC)c1`, the TGI in the test with 786-0 renal, with A549 NSCLC, in the test with HOP-92 NSCLC, in the test on MDA-MB-231 breast, in the test with MOLT-4 leukemia and in the test on SF-268 CNS was more than 100 µM throughout. The TGI in the test with SR leukemia and with UO-31 renal was more than 100 µM throughout.

As for `CCOC(=O)CCC(NC(=O)C(CC(=O)OC)NC(=O)OCc1ccccc1)C(=O)NC(CC(=O)OC)C(=O)NC(CCC(=O)OCC)C(=O)NC(CC(=O)OC)C(=O)NC(CCC(=O)OCC)C(=O)NC(CC(=O)OCC)C(=O)OCC` (stereo unspecified) (Cbz-D(OMe)E(OEt)D(OMe)E(OEt)D(OMe)E(OEt)D(OEt)-OEt; configuration not given here), the TGI in the test on 786-0 renal, with A549 NSCLC, in the test with LOX IMVI melanoma, in the test with MDA-MB-231 breast, in the test with MOLT-4 leukemia and with SR leukemia was more than 100 µM each time. In addition, the TGI in the test on SW-620 colon and with UO-31 renal was more than 100 µM throughout.

On to `CCN(CC)c1c(-c2c(OC(C)C)c(=O)c2=O)c(=O)n2ccsc2c1OC(C)=O`, for which the TGI in the test on 786-0 renal, in the test with HOP-92 NSCLC, in the test on LOX IMVI melanoma, in the test on MDA-MB-231 breast, in the test with MOLT-4 leukemia and in the test with SF-268 CNS was more than 100 µM throughout. In addition, the TGI in the test on SR leukemia, in the test on SW-620 colon and in the test with UO-31 renal was more than 100 µM throughout.

Turning to `CC(Nc1cccc(Cl)c1)c1ccncc1` (stereo unspecified), the TGI with 786-0 renal, in the test on A549 NSCLC, with HOP-92 NSCLC, with LOX IMVI melanoma, in the test on MDA-MB-231 breast and with MOLT-4 leukemia was more than 100 µM in each case. The TGI in the test on SF-268 CNS, with SW-620 colon and with UO-31 renal was more than 100 µM throughout.
